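GI50 is the concentration that inhibits growth by half. TGI: concentration producing complete growth inhibition.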
What was measured:
Test in all cases: DTP human tumour cell line panel, 384-well format
[1] = system: SNB-75 CNS
[2] = system: MCF7 breast
[3] = system: SF-539 CNS
[4] = system: TK-10 renal
[5] = system: UO-31 renal
[6] = system: CAKI-1 renal
[7] = system: HOP-92 NSCLC
[8] = system: UACC-62 melanoma
[9] = system: UACC-257 melanoma
[10] = system: MDA-MB-231 breast
[11] = system: SF-268 CNS
[12] = system: LOX IMVI melanoma
[13] = system: NCI-H522 lung
[14] = system: SK-MEL-28 melanoma
[15] = system: OVCAR-8 ovarian
[16] = system: NCI-H460 NSCLC
[17] = system: 786-0 renal
[18] = system: NCI-H226 lung
[19] = system: IGROV1 ovarian
[20] = system: CCRF-CEM leukemia
[21] = system: DU-145 prostate
[22] = system: MALME-3M melanoma
[23] = system: HT29 colon
[24] = system: HL-60(TB) leukemia
[25] = system: OVCAR-5 ovarian
[26] = system: RPMI-8226 leukemia
[27] = system: HCC-2998 colon
[28] = system: T-47D breast
[29] = system: HCT-15 colon
[30] = system: K-562 leukemia
[31] = system: OVCAR-3 ovarian
[32] = system: SF-295 CNS
[33] = system: M14 melanoma
[34] = system: SK-MEL-5 melanoma
[35] = system: PC-3 prostate
[36] = system: COLO 205 colon
[37] = system: HS 578T breast
[38] = system: KM12 colon
[39] = system: SNB-19 CNS
[40] = system: ACHN renal
[41] = system: HOP-62 NSCLC
[42] = system: EKVX NSCLC
[43] = system: MDA-MB-435 melanoma
[44] = system: U251 glioblastoma
[45] = system: BT-549 breast
[46] = system: RXF 393 renal
[47] = system: OVCAR-4 ovarian
[48] = system: MDA-MB-468 breast
[49] = system: SW-620 colon
[50] = system: A498 renal
[51] = system: NCI-H322M lung
[52] = system: NCI/ADR-RES ovarian
[53] = system: NCI-H23 lung
[54] = system: MOLT-4 leukemia
[55] = system: SR leukemia
[56] = system: SN12C renal
[57] = system: SK-OV-3 ovarian
[58] = system: A549 NSCLC
[59] = system: SK-MEL-2 melanoma
[60] = system: HCT-116 colon

CC1(COc2ccc3c(c2)ncn3-c2ccc3cccc(N4CCC(N)CC4)c3n2)COC1
GI50 [1]: 1.53 µM
TGI [1]: 2.87 µM
GI50 [2]: 1.35 µM
TGI [2]: 2.65 µM
GI50 [3]: 0.501 µM
TGI [3]: 1.93 µM
GI50 [4]: 1.71 µM
TGI [4]: 3.68 µM
GI50 [5]: 1.55 µM
TGI [5]: 2.95 µM
GI50 [6]: 1 µM
TGI [6]: 2.23 µM
GI50 [7]: 1.18 µM
TGI [7]: 2.47 µM
GI50 [8]: 1.46 µM
TGI [8]: 2.77 µM
GI50 [9]: 2.71 µM
TGI [9]: 4.19 µM
GI50 [10]: 1.06 µM
TGI [10]: 2.5 µM
GI50 [11]: 1.16 µM
TGI [11]: 2.44 µM
GI50 [12]: 0.636 µM
TGI [12]: 1.89 µM
GI50 [13]: 0.441 µM
TGI [13]: 1.63 µM
GI50 [14]: 1.68 µM
TGI [14]: 3.05 µM
GI50 [15]: 1.18 µM
TGI [15]: 2.43 µM
GI50 [16]: 0.479 µM
TGI [16]: 1.6 µM
GI50 [17]: 0.808 µM
TGI [17]: 2.07 µM
GI50 [18]: 1.56 µM
TGI [18]: 2.99 µM
GI50 [19]: 1.67 µM
TGI [19]: 3.08 µM
GI50 [20]: 0.365 µM
TGI [20]: 1.4 µM
GI50 [21]: 1.09 µM
TGI [21]: 2.35 µM
GI50 [22]: 1.85 µM
TGI [22]: 3.25 µM
GI50 [23]: 1.63 µM
TGI [23]: 3.05 µM
GI50 [24]: 0.275 µM
TGI [24]: 0.901 µM
GI50 [25]: 1.73 µM
TGI [25]: 3.41 µM
GI50 [26]: 0.242 µM
TGI [26]: 0.708 µM
GI50 [27]: 1.39 µM
TGI [27]: 2.73 µM
GI50 [28]: 2.07 µM
TGI [28]: 3.56 µM
GI50 [29]: 1.45 µM
TGI [29]: 2.99 µM
GI50 [30]: 0.967 µM
TGI [30]: 2.15 µM
GI50 [31]: 1.56 µM
TGI [31]: 3.01 µM
GI50 [32]: 1.58 µM
TGI [32]: 2.94 µM
GI50 [33]: 1.5 µM
TGI [33]: 2.83 µM
GI50 [34]: 1.37 µM
TGI [34]: 2.66 µM
GI50 [35]: 1.69 µM
TGI [35]: 3.16 µM
GI50 [36]: 0.482 µM
TGI [36]: 1.63 µM
GI50 [37]: 0.573 µM
TGI [37]: 1.73 µM
GI50 [38]: 0.0395 µM
TGI [38]: 1.45 µM
GI50 [39]: 1.98 µM
TGI [39]: 4.52 µM
GI50 [40]: 1.15 µM
TGI [40]: 2.47 µM
GI50 [41]: 0.556 µM
TGI [41]: 1.76 µM
GI50 [42]: 1.76 µM
TGI [42]: 3.41 µM
GI50 [43]: 1.28 µM
TGI [43]: 2.55 µM
GI50 [44]: 1.34 µM
TGI [44]: 2.7 µM
GI50 [45]: 0.37 µM
TGI [45]: 1.41 µM
GI50 [46]: 1.56 µM
TGI [46]: 2.91 µM
GI50 [47]: 2.18 µM
TGI [47]: 3.64 µM
GI50 [48]: 0.532 µM
TGI [48]: 1.6 µM
GI50 [49]: 1.1 µM
TGI [49]: 2.42 µM
GI50 [50]: 1.67 µM
TGI [50]: 3.04 µM
GI50 [51]: 1.95 µM
TGI [51]: 3.49 µM
GI50 [52]: 1.71 µM
TGI [52]: 3.39 µM
GI50 [53]: 0.622 µM
TGI [53]: 1.88 µM
GI50 [54]: 0.362 µM
TGI [54]: 1.17 µM
GI50 [55]: 0.185 µM
TGI [55]: 0.43 µM
GI50 [56]: 0.25 µM
TGI [56]: 1.58 µM
GI50 [57]: 1.61 µM
TGI [57]: 3 µM
GI50 [58]: 1.28 µM
TGI [58]: 2.63 µM

COC[C@H]1Cn2cc(-c3nc(Nc4ccnn4C)ncc3C)nc2C(=O)N1Cc1ccc(F)c(F)c1
GI50 [1]: 24.3 µM
TGI [1]: > 100 µM
GI50 [2]: 19.6 µM
TGI [2]: > 100 µM
GI50 [3]: 18.4 µM
TGI [3]: > 100 µM
GI50 [4]: 0.79 µM
TGI [4]: 76.7 µM
GI50 [5]: 2.73 µM
TGI [5]: > 100 µM
GI50 [6]: 0.509 µM
TGI [6]: > 100 µM
GI50 [7]: 0.389 µM
TGI [7]: 11.6 µM
GI50 [10]: 0.266 µM
TGI [10]: > 100 µM
GI50 [11]: 95.9 µM
TGI [11]: > 100 µM
GI50 [12]: 0.0393 µM
TGI [12]: 0.31 µM
GI50 [13]: 1.09 µM
TGI [13]: > 100 µM
GI50 [14]: < 0.01 µM
TGI [14]: 0.108 µM
GI50 [15]: 71.6 µM
TGI [15]: > 100 µM
GI50 [16]: 2.03 µM
TGI [16]: > 100 µM
GI50 [17]: 24.6 µM
TGI [17]: > 100 µM
GI50 [18]: 0.612 µM
TGI [18]: > 100 µM
GI50 [19]: 0.314 µM
TGI [19]: > 100 µM
GI50 [20]: 17.6 µM
TGI [20]: 37.9 µM
GI50 [21]: 10.4 µM
TGI [21]: > 100 µM
GI50 [22]: < 0.01 µM
TGI [22]: 0.0237 µM
GI50 [23]: 0.0947 µM
TGI [23]: > 100 µM
GI50 [59]: 0.0366 µM
TGI [59]: 0.196 µM
GI50 [24]: 0.0154 µM
TGI [24]: 1.55 µM
GI50 [25]: 0.217 µM
TGI [25]: > 100 µM
GI50 [60]: 0.0577 µM
TGI [60]: 32.3 µM
GI50 [26]: 0.771 µM
TGI [26]: 2.6 µM
GI50 [27]: 0.0316 µM
TGI [27]: 0.219 µM
GI50 [28]: 53.4 µM
TGI [28]: > 100 µM
GI50 [29]: 24.8 µM
TGI [29]: > 100 µM
GI50 [30]: 1.03 µM
TGI [30]: > 100 µM
GI50 [31]: 43.5 µM
TGI [31]: > 100 µM
GI50 [32]: > 100 µM
TGI [32]: > 100 µM
GI50 [33]: 0.0106 µM
TGI [33]: 0.181 µM
GI50 [34]: 0.064 µM
TGI [34]: 35.7 µM
GI50 [35]: 38.4 µM
TGI [35]: > 100 µM
GI50 [36]: < 0.01 µM
TGI [36]: 0.36 µM
GI50 [37]: 15.8 µM
TGI [37]: > 100 µM
GI50 [38]: 0.255 µM
TGI [38]: > 100 µM
GI50 [39]: 53.2 µM
TGI [39]: > 100 µM
GI50 [41]: 2.02 µM
TGI [41]: > 100 µM
GI50 [42]: 11 µM
TGI [42]: > 100 µM
GI50 [43]: 0.0355 µM
TGI [43]: > 100 µM
GI50 [44]: 2.25 µM
TGI [44]: > 100 µM
GI50 [45]: 18.6 µM
TGI [45]: > 100 µM
GI50 [46]: 23.6 µM
TGI [46]: > 100 µM
GI50 [47]: 61.9 µM
TGI [47]: > 100 µM
GI50 [48]: 14.2 µM
TGI [48]: 52.2 µM
GI50 [49]: 0.0875 µM
TGI [49]: 58.6 µM
GI50 [50]: 1.3 µM
TGI [50]: > 100 µM
GI50 [51]: 0.145 µM
TGI [51]: > 100 µM
GI50 [52]: 93.6 µM
TGI [52]: > 100 µM
GI50 [53]: 0.0369 µM
TGI [53]: 2.11 µM
GI50 [54]: 16.9 µM
TGI [54]: 46.5 µM
GI50 [57]: 18.2 µM
TGI [57]: > 100 µM
GI50 [58]: 0.373 µM
TGI [58]: > 100 µM

— PubChem BioAssay (NCI)
